Series [1] deals with T1, human FABP1 (hFABP1) (Homo sapiens, UniProt P07148).
T1 sequence (P07148 1-127): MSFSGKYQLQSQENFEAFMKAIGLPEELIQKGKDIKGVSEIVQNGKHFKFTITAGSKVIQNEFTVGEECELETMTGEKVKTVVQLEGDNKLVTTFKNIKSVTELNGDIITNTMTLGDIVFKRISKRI
Description: DAUDA displacement assay for hFABP1 binding. Conditions: for Fres (% Fluorescence Remaining): residual DAUDA-FABP1 fluorescence at saturating ligand (Min of eq. 7); for Maximum decrease of DAUDA-FABP1 fluorescence at saturation: 0.3 μM FABP1, 0.5 μM DAUDA.

The target in series [2] is CYP2C9 (Homo sapiens, UniProt P11712). It counts as in vitro ADME.
CYP2C9, sequence (P11712 whole entry): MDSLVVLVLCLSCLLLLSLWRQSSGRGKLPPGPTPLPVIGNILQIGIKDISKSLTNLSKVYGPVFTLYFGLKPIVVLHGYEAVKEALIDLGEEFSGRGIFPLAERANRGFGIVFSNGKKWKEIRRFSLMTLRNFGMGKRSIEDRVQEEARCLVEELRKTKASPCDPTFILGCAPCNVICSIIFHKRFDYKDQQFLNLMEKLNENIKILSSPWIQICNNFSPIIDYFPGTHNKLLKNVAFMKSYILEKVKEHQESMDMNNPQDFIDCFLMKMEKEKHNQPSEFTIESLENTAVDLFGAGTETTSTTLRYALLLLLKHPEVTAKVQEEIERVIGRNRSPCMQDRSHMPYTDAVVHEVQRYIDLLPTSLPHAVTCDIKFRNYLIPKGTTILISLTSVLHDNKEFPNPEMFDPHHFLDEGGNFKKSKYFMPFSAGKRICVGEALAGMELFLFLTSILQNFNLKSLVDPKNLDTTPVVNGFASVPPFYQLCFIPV
Series [3] has as its system FABP2. The note with it: ref Patil et al., 2014; cited from earlier work.

Molecules are shown by their SMILES. Where two headings read alike, the source gives them in different places. Where only a bound is given, the exact number is not on record here.

As usually defined, the EC50 is the midpoint of the concentration-response curve. One may read the Km as the substrate concentration at which the rate is half of its maximum. One may read the Kd as the concentration at which binding is half-saturated. A low value points to tighter binding.

As for `CC(C)Cc1ccc(C(C)C(=O)O)cc1` (centres unmarked) [Ibuprofen, ibuprofen], the “Fres (% Fluorescence Remaining)” value in series [1] came out at 28 ± 4.9%.

`CCCCC/C=C\C/C=C\C/C=C\C/C=C\CCCC(=O)O` [Arachidonic Acid, arachidonic acid]: in series [1], the EC50 worked out at 0.42 ± 0.11 µM and the “Fres (% Fluorescence Remaining)” value amounted to 2.2 ± 3.6%.

For the compound `O=C(O)Cc1ccccc1Nc1c(Cl)cccc1Cl` [Diclofenac, diclofenac], the “Maximum decrease of DAUDA-FABP1 fluorescence at saturation” value (“Maximum decrease” for short) is more than 82% in series [1] and approximately 85% in series [1] (listed as diclofenac). The “Fres (% Fluorescence Remaining)” value in series [1] worked out at 15 ± 3.0%. Besides, the Michaelis-Menten constant (Km) at 10 min stood at 5.8 ± 1.5 µM in series [2] (CYP2C9 Supersomes (recombinant CYP2C9) with 20 μM hFABP1, pH 7.4, Km,apparent for 4'-OH-diclofenac formation, +FABP1, nominal diclofenac concentrations, 20 μM hFABP1, 1 nM CYP2C9 Supersomes) and 1.4 ± 0.2 µM in series [2] (CYP2C9 Supersomes (recombinant CYP2C9), without hFABP1, pH 7.4, Km,apparent for 4'-OH-diclofenac formation, −FABP1, nominal diclofenac concentrations, absence of FABP1, 1 nM CYP2C9 Supersomes).

With `C[C@H](C(=O)O)c1ccc(-c2ccccc2)c(F)c1` [S-Flurbiprofen, (S)-flurbiprofen], the “Fres (% Fluorescence Remaining)” value in series [1] is 48 ± 1.1%.

Turning to `O=C(c1ccccc1)c1ccc2n1CCC2C(=O)O` (centres unmarked) [Ketorolac, ketorolac], in series [3], the “Displacement of fluorescent probe ANS from FABP2” value was “did not displace”.

Consider `C[C@@H](C(=O)O)c1ccc(-c2ccccc2)c(F)c1` [R-Flurbiprofen, (R)-flurbiprofen], for which the “Fres (% Fluorescence Remaining)” value in series [1] is given as 40 ± 1.6%.

Regarding `CCc1ccc(CCOc2ccc(CC3SC(=O)NC3=O)cc2)nc1` (centres unmarked) [Pioglitazone, pioglitazone], in series [1], the “Maximum decrease” value is on record as more than 82% and the “Fres (% Fluorescence Remaining)” value was 5.2 ± 2.4%.

In the case of `CNCCC(Oc1ccc(C(F)(F)F)cc1)c1ccccc1` (centres unmarked) [fluoxetine], the “Decrease of DAUDA fluorescence in initial screen” value in series [1] (drug at 30 μM, 0.3 μM FABP1 prebound with 0.5 μM DAUDA) is on record as “All of the drugs tested except fluoxetine decreased DAUDA fluorescence”.

In series [1], `Nc1ccc(S(=O)(=O)Nc2ccnn2-c2ccccc2)cc1` [Sulfaphenazole, sulfaphenazole] returned an EC50 of more than 40 µM.

As to `CCCCNC(=O)NS(=O)(=O)c1ccc(C)cc1` [Tolbutamide, tolbutamide], the 50% effective concentration (EC50) in series [1] was more than 40 µM.

On to `Cc1ccc(C)c(OCCCC(C)(C)C(=O)O)c1` [Gemfibrozil, gemfibrozil], for which, in series [1], the EC50 amounted to 5.6 ± 1.7 µM, the “Maximum decrease” value is listed as more than 82% and the “Fres (% Fluorescence Remaining)” value worked out at 18 ± 2.8%.

Regarding `CC(C(=O)O)c1ccc(-c2ccccc2)c(F)c1` (centres unmarked) [flurbiprofen], in series [1], the dissociation constant (Kd) was 2 to 10 µM.
